Tests used:
HEK293-TOP cells = test: TOPFlash Wnt reporter assay; type: cell-based; conditions: 18 h
Protocol: Figure 4. Identification of functional properties of KY19382 in activating the Wnt/β-catenin pathway. (A) Chemical structure of KY19382. (B) In vitro binding assay to analyze the effect of KY19382 on CXXC5–DVL interaction (mean ± SEM, n = 3). The IC50 value was determined from the dose–response curve. (C) In vitro kinase assay to analyze the effect of KY19382 on kinase activity of GSK3β (mean ± SEM, n = 3). The IC50 value was determined from the dose–response curve. (D) Analyses of TOPFlash activity in HEK293 reporter cells grown with the indicated concentrations of KY19382 for 18 h (mean ± SEM, n = 4; t test, **P < 0.005 and ***P < 0.0005 versus DMSO-treated control). (E) Immunoblot analyses with the indicated antibodies in ATDC5 cells treated with I3O or KY19382 for 24 h. (F) Immunoblot analyses of whole cell lysates immunoprecipitated with anti-Myc in ATDC5 cells treated with 0.1 μM KY19382 for 4 h after transfection with pCMV-FLAG-DVL1 and pcDNA3.1-CXXC5-Myc. (G) Immunocytochemical staining (left) and quantitative analyses (mean ± SEM, n = 3; t test, **P < 0.005) (right) for β-catenin in ATDC5 cells treated with 0.1 μM KY19382 for 48 h. Scale bar, 100 μm.
HEK293-TOP cells were seeded into each well of a 24-well plate. The cells were treated with individual compounds at indicated concentration and cultured for 18 h. […]

[1] = system: growth plates of proximal tibiae; test: Growth plate senescence and longitudinal bone growth in KY19382-treated mice; type: in vivo, mouse
Protocol: Figure 5. The effects of KY19382 on growth plate senescence and longitudinal bone growth. (A-I) KY19382 (0.1 mg/kg) was administered to 7-wk-old mice (A-E) or 3-wk-old mice (F-I) by daily intraperitoneal injection for 2 wk (n = 7). H&E staining, IHC analyses with the indicated antibodies, and TRAP staining in the growth plates of proximal tibiae treated with KY19382 (A, F). Quantitative analyses of the cell number per column (mean ± SEM, n = 7; t test, ***P < 0.0005) (B) or the height (mean ± SEM, n = 7; t test, ***P < 0.0005) (G) of resting zone and proliferative zone (RZ&PZ) and hypertrophic zone (HZ) in the growth plates of proximal tibiae. Quantitative analyses of BrdU-positive cells in the growth plates (mean ± SEM, n = 5; t test, ***P < 0.0005) (C, H). Quantitative analyses of the number of TRAP-positive foci along 250 μm of the cartilage/bone interface (mean ± SEM, n = 3; t test, *P < 0.05) (D, I). Immunoblot analyses with the indicated antibodies in the growth plate of proximal tibiae of mice treated with KY19382 (E). Scale bars, 50 μm. (J) 3-wk-old mice were intraperitoneally injected with KY19382 (0.1 mg/kg) daily for 10 wk. Representative radiographs are shown (left), and tibial length was measured (right) (mean ± SEM, n = 7-15; t test, ***P < 0.0005). The area within the dashed lines indicates the growth plate zone. n.s., no significance; TRAP, tartrate-resistant acid phosphatase. Cxxc5^-/- mice were established in a previous study ([Kim et al, 2015]). To manipulate growth plate senescence by estrogen, 3-wk-old Cxxc5^+/+ and Cxxc5^-/- male mice received weekly i.m. injections of either 70 μg/kg estradiol (E2) cypionate (Sigma-Aldrich) or vehicle (cottonseed oil) for 3 wk. To investigate the effects of KY19382 treatment on longitudinal bone growth, C57BL/6 male mice were purchased from KOATECH (Gyeonggido, Korea). KY19382 (0.1 mg/kg) was administered daily by i.p. injection to 3- and 7-wk-old mice for 2 wk or to 3-wk-old mice for 10 wk. For BrdU labeling experiments, the mice were i.p. injected with 50 mg/kg BrdU (Sigma-Aldrich) before 24 h to euthanize. All animal procedures were approved by the Institutional Animal Care and Use Committee of Yonsei University (Korea) and conducted based on the guidelines of the Korean Food and Drug Administration. Plain radiographs were taken using an X-ray apparatus (KODAK DXS 4000 Pro SYSTEM; Carestream Health). The tissues were fixed in 4% PFA, decalcified in 10% EDTA (pH 7.4), dehydrated, embedded in paraffin, and sectioned to 4-μm thickness (Leica Microsystems). The tissues sections were rehydrated and used for further analyses, including H&E, TRAP, and IHC staining. To perform IHC staining, the sections were incubated with citrate buffer (pH 6.0) at 80°C for 30 min, with 0.05% trypsin working solution (pH 7.8) for 30 min at 37°C, or with 0.5% pepsin (Sigma-Aldrich) for 15 min at 37°C. Then, the sections were blocked with 5% normal goat serum (Vector Laboratories) and 0.3% Triton X-100 in PBS for 1 h at room temperature. For 3,3'-diaminobensidine (DAB) staining, the sections were incubated with 0.345% H2O2 for 15 min. Before incubating the sections with mouse primary antibody, mouse IgG was blocked using a M.O.M kit (Vector Laboratories). The sections were incubated at 4°C overnight with the following primary antibodies: anti-β-catenin (#610154; 1:50; BD Bioscience), anti-CXXC5 (1:200; lab-made) anti-BrdU ([…]; 1:200; DAKO), anti-COL2A1 (PA5-11462; 1:100; Thermo Fisher Scientific), anti-Ki67 (ab15580; 1:200; Abcam), and anti-RUNX2 (ab23981; 1:200; Abcam). Then, the sections were incubated at room temperature for 1 h with biotinylated anti-mouse (BA-9200; 1:200; Vector Laboratories) or biotinylated anti-rabbit (BA-1000; 1:200; Vector Laboratories) secondary antibodies. The sections were then incubated in avidin-biotin complex solutions (Vector Laboratories), stained with a DAB kit (Vector Laboratories) for 3-30 min, and counterstained with methyl green (Sigma-Aldrich). […]

[2] = 3-wk-old mice, 0.1 mg/kg i.p. daily for 2 wk
[3] = 7-wk-old mice, 0.1 mg/kg i.p. daily for 2 wk

## CON=C1C(=C2C(=O)Nc3cc(Cl)c(Cl)cc32)Nc2ccccc21 [KY19382, 5,6-dichloroindirubin-3′-methoxime]
HEK293-TOP cells
  TOPFlash Wnt reporter activity: strong enhancement
[1]; [2]
  BrdU-positive cells in growth plate: elevated
  height of each growth plate zone: elevated
[1]; 3-wk-old mice, 0.1 mg/kg i.p. daily for 2 wk, vs vehicle
  number of TRAP-positive foci in the growth plate/trabecular interface: not different
[1]; 3-wk-old mice, 0.1 mg/kg i.p. daily for 10 wk, vs vehicle
  length of tibiae: significantly increased
[1]; [3]
  nuclear β-catenin in growth plate chondrocytes: dramatically increased
  numbers of proliferative and hypertrophic chondrocytes per column: increased numbers
  total growth plate height (COL2A1 immunostaining): significantly increased
[1]; 7-wk-old mice, 0.1 mg/kg i.p. daily for 2 wk, vs vehicle
  TRAP-positive foci at cartilage/bone interface: elevated
